Source: PubChem BioAssay (NCI)
Several values for one entry are separate records, joined by “and”; a condition that tells them apart may be missing. Equal values may be shown once.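 Method: 48-hour compound exposure of cells in 96-well plates, five concentrations, linear interpolation of endpoints. TGI: total growth inhibition.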

Legend:
Assay in all cases: DTP human tumour cell line panel, 48 h
MDA-N = tested on: MDA-N
OVCAR-5 ovarian = tested on: OVCAR-5 ovarian
UACC-257 melanoma = tested on: UACC-257 melanoma
HT29 colon = tested on: HT29 colon
RXF 393 renal = tested on: RXF 393 renal
SW-620 colon = tested on: SW-620 colon
A549 NSCLC = tested on: A549 NSCLC
A498 renal = tested on: A498 renal
HCT-116 colon = tested on: HCT-116 colon
LOX IMVI melanoma = tested on: LOX IMVI melanoma

| SMILES | TGI (MDA-N) | TGI (OVCAR-5 ovarian) | TGI (UACC-257 melanoma) | TGI (HT29 colon) | TGI (RXF 393 renal) | TGI (SW-620 colon) | TGI (A549 NSCLC) | TGI (A498 renal) | TGI (HCT-116 colon) | TGI (LOX IMVI melanoma) |
| --- | --- | --- | --- | --- | --- | --- | --- | --- | --- | --- |
| CC1CC/C(=C\c2ccc(F)cc2)C2=C1C(c1ccc(F)cc1)n1c(s/c(=C\c3ccc(Cl)cc3)c1=O)=N2 (stereo not given) | > 100 µM | > 100 µM | > 100 µM | > 100 µM | > 100 µM | > 100 µM | > 100 µM | > 100 µM | > 100 µM | > 100 µM |
| O[C@H]1[C@@H]2OC[C@@H](O)[C@H](OCc3ccccc3)[C@@](COCc3ccccc3)(O2)[C@@H]1OCc1ccccc1 | 29.4 µM | 30 µM | 28.7 µM | 28.7 µM | 39.8 µM | 33.1 µM | 33.3 µM | 31.4 µM | 47.5 µM | 32.7 µM |
| O=C(N1CCN(c2ccccc2)CC1)N(C(=O)C1(c2ccc(Cl)cc2)CCCC1)S(=O)(=O)c1ccccc1 | 51.2 µM | 65.7 µM | 88.1 µM | 75.8 µM | > 100 µM | > 100 µM | > 100 µM | 0.429 µM | 52.7 µM | 37.9 µM |
| S=c1sscc1N1CCSc2ssc(=S)c21 | > 100 µM | > 100 µM | > 100 µM | > 100 µM | > 100 µM | > 100 µM | > 100 µM | 77.4 µM | > 100 µM | > 100 µM |
| CCOC(=O)C(C(=O)OCC)C(NC(=O)Nc1cc(C(F)(F)F)ccc1OC)(C(F)(F)F)C(F)(F)F | > 100 µM | > 100 µM | 94.1 µM | 92.1 µM | 62.3 µM | > 100 µM | > 100 µM | 31.9 µM | > 100 µM | > 100 µM |
| CCCCn1c2c(n(CCCC)c1=[Se])-c1c(n(CCCC)c(=[Se])n1CCCC)S[Se][Se]S2 | > 100 µM | 47.6 µM | > 100 µM | > 64.6 µM | > 71.4 µM | 19.6 µM | > 61.3 µM | > 100 µM | > 56.2 µM | 30.1 µM |
| O=c1ccc2nc3ccc(O)cc3oc-2c1 | 3.43 µM | > 100 µM | 26.4 µM | > 75.9 µM | > 100 µM | > 88.9 µM | > 100 µM | > 100 µM | > 100 µM | 7.86 µM |
| COc1ccc(NC(C)=O)cc1N1C(=O)/C(=C\c2cccc(Oc3ccccc3)c2)SC1c1ccccc1 (stereo not given) | 81.9 µM | > 100 µM | > 100 µM | 45.5 µM | > 100 µM | 71.1 µM | > 100 µM | > 100 µM | 23.8 µM | 55.5 µM |
| CCOC(=O)c1c[nH]c2cc3c(cc2c1=O)CCS3 | > 100 µM | > 100 µM | > 100 µM | > 100 µM | > 100 µM | > 100 µM | > 100 µM | > 100 µM | > 100 µM | > 100 µM |
| Fc1ccc(C(OCCN2CCC3CCC(C2)N3C/C=C/c2cccnc2)c2ccc(F)cc2)cc1 (stereo not given) | 23.8 µM | 26.8 µM | 12.3 µM | 14.6 µM | 19.4 µM | 23.1 µM | 25.4 µM | 28 µM | 19 µM | 27 µM |
| NC1=CN(Cc2ccccc2)C2=N/C(=C\c3ccco3)C(=O)N12 | > 100 µM | > 100 µM | > 100 µM | > 100 µM | > 100 µM | > 100 µM | > 100 µM | > 100 µM | > 100 µM | > 100 µM |
| CSc1nc(Cl)c2c(n1)Sc1nc3ccccc3n1N=C2 | 59.9 µM | 97.2 µM | > 100 µM | 53.6 µM | 43.4 µM | 29.3 µM | > 100 µM | > 100 µM | > 100 µM | 33.5 µM |
| Cc1ccc(C)c(C(=N)c2ccccc2Cc2ccccc2)c1 | 69.4 µM | 98.3 µM | 73.1 µM | 33.7 µM | 34.9 µM | > 100 µM | > 100 µM | 53.9 µM | 41.5 µM | 31.7 µM |
| Nc1c(O)c(C(=O)O)cc2ccccc12 | 32.3 µM | 41.2 µM | 38.4 µM | 31.8 µM | > 100 µM | 32.3 µM | > 100 µM | > 100 µM | 32.2 µM | 22.5 µM |
| Cc1cc(C)nc(NS(=O)(=O)c2ccc(NC(=O)c3ccc4nc5ccccc5c(Nc5ccc(S(=O)(=O)Nc6nc(C)cc(C)n6)cc5)c4c3)cc2)n1 | > 100 µM | > 100 µM | > 100 µM | > 100 µM | > 100 µM | > 100 µM | > 100 µM | > 100 µM | > 100 µM | 43.4 µM |
| COc1ccccc1NC1=NCC(C)S1 (stereo not given) | > 100 µM | > 100 µM | > 100 µM | > 100 µM | > 100 µM | > 100 µM | > 100 µM | > 100 µM | > 100 µM | > 100 µM |
| Cc1ccc2c(c1)C/C(=C\c1ccccc1C(=O)O)C2=O | > 100 µM | > 100 µM | > 100 µM | > 100 µM | > 100 µM | > 100 µM | > 100 µM | > 100 µM | > 100 µM | > 100 µM |
| CC(=O)Nc1ccc2c3c(cc(O)c2c1)N(C(=O)CCCCCC(=O)Nc1ccc2c4c(cc(O)c2c1)N(C(=O)OC(C)(C)C)CC4CCl)CC3CCl (stereo not given) | 3.56 µM | 35.5 µM | > 28.6 µM | > 39.8 µM | 2.69 µM | > 100 µM | > 55 µM | 5.31 µM | 14.4 µM | 18.2 µM |

| SMILES | TGI (MDA-N) | TGI (OVCAR-5 ovarian) | TGI (UACC-257 melanoma) | TGI (HT29 colon) | TGI (RXF 393 renal) | TGI (SW-620 colon) | TGI (A549 NSCLC) | TGI (A498 renal) | TGI (HCT-116 colon) | TGI (LOX IMVI melanoma) |
| --- | --- | --- | --- | --- | --- | --- | --- | --- | --- | --- |
| OCC(O)C(O)C(C=NNc1ncnc2ccc(Br)cc12)=NNc1ncnc2ccc(Br)cc12 (stereo not given) | > 100 µM | 88 µM and > 100 µM | > 100 µM | > 100 µM | 72.4 µM | > 100 µM | 60.7 µM and > 100 µM | 18 µM and 75.2 µM | > 100 µM | 14.9 µM and > 100 µM |
| Cc1ccc2nnc(NS(=O)(=O)c3cc(C)c(Cl)cc3S)n2n1 | > 100 µM | > 100 µM | > 100 µM | > 100 µM | > 100 µM | > 100 µM | > 100 µM | > 100 µM | > 100 µM | > 100 µM |
| Cc1cn(C2CC(O)C(Cn3nncc3Cn3ccc(=O)[nH]c3=O)O2)c(=O)[nH]c1=O (stereo not given) | > 100 µM | > 100 µM | > 100 µM | > 100 µM | > 100 µM | > 100 µM | > 100 µM | > 100 µM | > 100 µM | > 100 µM |
| COc1cc(C2S/C(=C/c3ccccc3)C(=O)N2c2ccccn2)cc(OC)c1OC (stereo not given) | 34.4 µM | 41.2 µM | > 100 µM | > 47 µM | 22.8 µM | 64.3 µM | > 64 µM | 33.4 µM | 20.6 µM | 26.9 µM |
| NNC(=O)CSc1nnc(CCCCCCCCc2nnc(SCC(=O)NN)o2)o1 | > 100 µM | > 100 µM | > 100 µM | > 100 µM | > 100 µM | > 100 µM | > 100 µM | > 100 µM | > 100 µM | > 100 µM |
| Nc1ccc2c(c1)S(=O)(=O)c1cc(N)ccc1-2 | > 100 µM | > 100 µM | > 100 µM | > 100 µM | > 100 µM | > 100 µM | > 100 µM | > 100 µM | > 100 µM | > 100 µM |
| N#CCCN(CCC#N)c1ccc(/C=C2\N=C(c3ccccc3)N(c3ccccc3)C2=O)cc1 | > 100 µM | > 100 µM | > 100 µM | > 100 µM | > 100 µM | > 100 µM | > 100 µM | > 100 µM | > 100 µM | > 100 µM |
| COC(=O)C(=O)C(C(=O)C(=O)Nc1nc(=S)[nH][nH]1)c1nc2ccc([N+](=O)[O-])cc2[nH]c1=O (stereo not given) | > 100 µM | > 100 µM | > 100 µM | > 100 µM | > 100 µM | > 100 µM | > 100 µM | > 100 µM | > 100 µM | > 100 µM |
| N#C/C=C\c1ccc(-c2cc(C(F)(F)F)cc(C(F)(F)F)c2)o1 | 71.6 µM | > 100 µM | > 100 µM | > 100 µM | > 100 µM | > 100 µM | > 100 µM | 61.3 µM | > 100 µM | > 100 µM |
| C=[N+](CNC(=O)CNC(=O)C(Cc1ccccc1)NC(=O)OC(C)(C)C)C(=O)CNC(=O)C(Cc1ccccc1)NC(=O)OC(C)(C)C (stereo not given) | > 100 µM | > 100 µM | > 100 µM | > 100 µM | > 100 µM | > 100 µM | > 100 µM | > 100 µM | > 100 µM | > 100 µM |
| NC(=O)N=Nc1c2ccccc2n2[nH]ccc12 | > 100 µM | > 100 µM | > 100 µM | > 100 µM | 59.4 µM | > 100 µM | > 100 µM | > 100 µM | > 100 µM | > 100 µM |
| COc1ccc(/C=C2\CC3C4CC=C5C[C@@H](O)CC[C@]5(C)C4CC[C@]3(C)C2=O)cc1OC (stereo not given in full) | > 100 µM | > 100 µM | > 100 µM | > 100 µM | > 100 µM | > 100 µM | > 100 µM | 93.6 µM | > 100 µM | > 100 µM |
| N=c1oc2ccc(Cl)cc2cc1C(=O)NC1CCCCC1 | > 100 µM | > 100 µM | > 100 µM | > 100 µM | > 100 µM | > 100 µM | > 100 µM | > 100 µM | > 100 µM | > 100 µM |
| CC1OC(n2cnc3c(N)nc(Cl)nc32)C(C)(O)C1O (stereo not given) | > 25 µM | > 25 µM | > 25 µM | > 25 µM | > 25 µM | > 25 µM | > 25 µM | > 25 µM | > 25 µM | > 25 µM |
| CCCNC(=O)c1cc(NC(=O)c2cc(NC(=O)CCS(=O)(=O)OC)cn2C)cn1C | > 69.8 µM | > 100 µM | 53.5 µM | > 56.9 µM | 29 µM | > 100 µM | > 100 µM | > 100 µM | > 69.8 µM | 43.6 µM |
| CC1(C)N=C(N)N=C(N)N1CCCCc1ccccc1 | > 100 µM | > 100 µM | > 75.9 µM | > 100 µM | > 100 µM | > 100 µM | > 100 µM | > 100 µM | > 100 µM | > 100 µM |
| COc1cc2c3c4c1OCc1c5c(cc(c1-4)CC3[N+](C)(C)CC2)OCO5 (stereo not given) | > 100 µM | > 100 µM | > 100 µM | > 100 µM | > 100 µM | > 100 µM | > 100 µM | > 100 µM | > 100 µM | > 100 µM |
| CC(C)(C)OC(=O)CC(NC(=O)OC(C)(C)C)C(=O)Oc1ccc([N+](=O)[O-])cc1 (stereo not given) | > 100 µM | > 100 µM | > 100 µM | > 100 µM | > 100 µM | > 100 µM | > 100 µM | > 100 µM | > 100 µM | > 100 µM |
